Assay results from patent publication US20240173329A1, “BELVARAFENIB FOR USE IN TREATMENT OF BRAIN CANCERS” (Genentech, Inc., priority 2021, published 2024).

Tests used:
[1] = molecular target: discoidin domain receptor tyrosine kinase 1 (DDR1) (Homo sapiens, UniProt Q08345); test: panel of 189 kinase assays; assay type: biochemical
[2] = system: A375SM-Luc cells harboring the BRAF^V600 mutation; test: A375SM_Luc cell brain metastasis mouse model; assay type: in vivo; settings: for mOS (median overall survival): vehicle 24.5 days; for day from which clinical signs of debility due to tumor growth occurred: vehicle after day 11
Description: The mouse strain was BALB/c Nude (nu/nu) produced and supplied by Orient Bio Inc., Korea.
The mice were kept in conventional animal lab cages for at least one week for acclimation before the start of the experiment. The cages were polysulfone 1291H (W425×D266×H185 mm, Techniplast, Italy). Eight mice were housed in each cage at a temperature of 22±2° C., a relative humidity of 50±20%, a ventilation frequency of 10-15 times/h, a 12 hour light/dark cycle, a light intensity of 150-300 Lux, at least weekly cage replacement. The mice were fed ad libitum Picolab Rodent diet (5053, Lab Diet, USA). Tap water was given ad libitum following UV irradiation and filtration.
The cancer cell line was A375SM-Luc harboring the BRAF^V600 mutation. That cell line was deemed suitable for the efficacy study of RAF inhibitors against BRAF^V600 in melanoma.
The A375SM-Luc cell line was established as follows. A375SM cells were seeded into 24 well clear flat-bottomed plates with 2.5×10^5 cells/well in MEM medium (Gibco, USA) supplemented with 10% FBS (Gibco, USA). The next day, CMV-Firefly luciferase lentivirus (Cellomics Inc., USA) was diluted in complete medium containing 8 μg/mL polybrene (Sigma Aldrich, St. Louis MO, USA). Cells were centrifuged in the prepared medium for 90 minutes at 800×g, followed by incubation in fresh medium for 2 to 3 days. Stable clones were selected using puromycin, and individual clones were screened for luciferase activity be measuring their light emission with the IVIS® Lumina Series III In Vivo Imaging System (PerkinElmer Inc., USA) after adding 10 μL (15 mg/mL) D-Luciferin (Gold Biotechnology, USA). The in vitro media was MEM 10% FBS. The in vitro culture condition was incubation at 5% CO2 at 37° C.
The in vivo cell inoculation was as follows. Mice were anesthetized by intraperitoneal (i.p.) injection of 30 mg/kg Zoletil 50 (Virbac, France) and 10 mg/kg Rompun (Bayer Korea, Korea). Five thousand cells suspended in 10 μL phosphate buffered saline were intracranially injected into the right frontal hemisphere (AP+2.0, ML−1.0, DV+2.0 from the bregma) using a stereotactic fixation device (David Kopf Instruments, USA). Mouse models were produced over two days.
The mice were randomized by their tumor burden by BLI (8 mice per group) after 6-7 days from inoculation (implantation). The mice were then dosed with belvarafenib dihydrochloride, 99.6% purity, that was stored at room temperature. Dosing was based on active ingredient free base and was corrected for assay and water content. The dosing vehicle was DMSO (5%), cremophore EL (5%), and deionized water (90%). Belvarafenib for dosing was dissolved in the vehicle.
Belvarafenib (in groups 2 and 3) and vehicle (in group 1) were dosed at 10 mL/kg (p.o.) once per day (QD) for a duration of 102 days.
Body weight measurement was performed twice a week during the dosing period. Relative body weight (%) was calculated by: body weight Day X (g)/initial body weight (g)×100 (Day X=body weight measurement day). Tumor burden was measured by bioluminescence imaging (BLI) using a IVIS® Lumina Series III In Vivo Imaging System (PerkinElmer Inc., USA) each week. […] Kaplan-Meier survival curves showing prolonged survival of mice of groups 1 to 3 were plotted from the date of drug administration. The median overall survival rate (mOS) was the amount of time after which 50% of the mice had died and 50% had survived.
The data were expressed as means±standard error of the mean (SEM). Statistical analysis was conducted by GraphPad PRISM® Version 6 (GraphPad Software, USA). […] was conducted to evaluate significant differences between the groups. A p value less than 0.05 was considered statistically significant.
Mice were intraperitoneally injected with 15 mg/mL of D-Luciferin on each of days 1, 5, 12, 19, 26, 33, 40, 47, 54, 61, 68, 75, 82, 89, 96, and 103 and evaluated with BLI imaging with an IVIS® Lumina Series III In Vivo Image System (PerkinElmer Inc., USA).

[3] = system: P-gp/BCRP; test: P-gp/BCRP efflux substrate status; assay type: in vitro ADME; settings: belvarafenib, own experiments

Sequence of discoidin domain receptor tyrosine kinase 1 (DDR1) (Q08345 19-913, species assumed): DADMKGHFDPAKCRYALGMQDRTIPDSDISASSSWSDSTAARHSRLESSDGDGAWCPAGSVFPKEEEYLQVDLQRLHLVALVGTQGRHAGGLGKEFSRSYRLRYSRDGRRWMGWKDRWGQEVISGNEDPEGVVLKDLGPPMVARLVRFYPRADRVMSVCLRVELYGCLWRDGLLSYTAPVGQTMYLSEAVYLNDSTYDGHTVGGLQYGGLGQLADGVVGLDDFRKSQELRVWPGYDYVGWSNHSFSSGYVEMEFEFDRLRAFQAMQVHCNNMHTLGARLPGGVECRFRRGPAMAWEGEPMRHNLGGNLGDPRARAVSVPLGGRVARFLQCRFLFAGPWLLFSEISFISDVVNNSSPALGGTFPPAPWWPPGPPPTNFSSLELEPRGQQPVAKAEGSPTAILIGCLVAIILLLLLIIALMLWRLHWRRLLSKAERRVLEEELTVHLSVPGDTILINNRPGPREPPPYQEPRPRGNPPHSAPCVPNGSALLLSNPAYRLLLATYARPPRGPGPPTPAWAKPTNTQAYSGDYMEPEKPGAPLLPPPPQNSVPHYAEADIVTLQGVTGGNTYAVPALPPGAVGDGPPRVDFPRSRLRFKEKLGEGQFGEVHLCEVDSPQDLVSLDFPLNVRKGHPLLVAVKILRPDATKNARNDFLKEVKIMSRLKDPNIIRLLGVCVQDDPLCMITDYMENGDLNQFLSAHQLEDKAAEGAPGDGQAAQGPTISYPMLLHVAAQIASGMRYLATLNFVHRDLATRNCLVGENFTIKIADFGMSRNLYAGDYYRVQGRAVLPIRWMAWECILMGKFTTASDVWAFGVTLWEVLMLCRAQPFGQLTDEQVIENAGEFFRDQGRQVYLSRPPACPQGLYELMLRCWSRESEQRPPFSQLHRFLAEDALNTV

Structure (SMILES): Cc1ccc2c(Nc3cccc(Cl)c3F)nccc2c1NC(=O)c1csc2c(N)ncnc12 [Belvarafenib, 4-amino-N-(1-((3-chloro-2-fluorophenyl)amino)-6-methylisoquinolin-5-yl)thieno[3,2-d]pyrimidine-7-carboxamide]
- inhibition at 1 µM [1]: > 90%
- tumor burden by bioluminescence imaging (BLI) ([2]; 5 mg/kg p.o. QD): more effective tumor inhibition than the vehicle
- Maximum weight loss ([2]; 5 mg/kg p.o. QD, day 39): 33.0 (day 39) %
- mOS (median overall survival) ([2]; 5 mg/kg p.o. QD): 34.5 days
- tumor burden by bioluminescence imaging (BLI) ([2]; 15 mg/kg p.o. QD): markedly delayed tumor growth as compared to the vehicle
- mOS (median overall survival) ([2]; 15 mg/kg p.o. QD): 70.0 days
- day from which clinical signs of debility due to tumor growth occurred ([2]; group 2 (5 mg/kg)): 14 days
- day from which clinical signs of debility due to tumor growth occurred ([2]; group 3 (15 mg/kg)): 16 days
- day of administration from which hair growth showed ([2]; groups 2 and 3 (5 and 15 mg/kg)): 7 days
- P-gp/BCRP efflux substrate? [3]: is not a P-gp and a BCRP efflux substrate and No
